Experimental data published in PMC4148164 (Journal of Medicinal Chemistry, 2014).

Key:
[1] = system: precontracted bovine coronary artery rings; experiment: Vasorelaxation of U46619-precontracted bovine coronary artery rings; format: cell-based; settings: for fold more potent than 14,15-EET as vasorelaxant (ED50): ratio of ED50 versus 14,15-EET
[2] = in biological milieu; estimated; cited from earlier work

Row | Compound | fold more potent than 14,15-EET as vasorelaxant (ED50) [1] | other results
1 | CCCCCNC(=O)NCCCC/C=C\CCCCCCc1nnn[nH]1 [Compd 19, 1-(12-(1H-Tetrazol-5-yl)dodec-5(Z)-en-1-yl)-3-pentylurea] | 12 fold | –
2 | CCCCCNC(=O)NCCCC/C=C\CCCCCNS(=O)(=O)c1ccccc1 [Compd 9] | – | improvement in the EC50 by a factor (versus parent free acid) ([1]; vasorelaxation EC50 compared with parent free acid): ~2
3 | N1-Butyl-N2-(12-(2-oxido-3H-1,2,3,5-oxathiadiazol-4-yl)dodec-5(Z)-en-1-yl)oxalamide [Compd 25] | 6 fold | –
4 | CCCCCC1OC1C/C=C\C/C=C\C/C=C\CCCC(=O)O (stereo not shown) [14,15-EET, 14,15-epoxyeicosa-5(Z),8(Z),11(Z)-trienoic acid] | – | half-life [2]: no more than seconds to minutes
